{"source": "patent US7098195B2", "about": "“Fluorinated glucosamine analogs useful for modulating post-translational glycosylations on cells” (Health Research, Inc., priority 2001, dated 2006)", "key": {"human CLA+ T-cells": {"system": "human CLA+ T-cells", "experiment": "Growth inhibition of human CLA+ T-cell cultures (Trypan-blue exclusion)", "format": "cell-based", "experimental": "To determine a suitable concentration of 4-F-GlcNAc for examining glycoconjugate-modifying effects without influencing cell growth or protein synthesis, we performed preliminary growth inhibitory experiments of cells incubated with 4-F-GlcNAc for 2 cell doublings (˜36 h) at 37° C. (cell viability assessed by Trypan-blue exclusion)."}, "[1]": {"system": "HECA-452 epitopes on human hematopoietic KG1a cells", "experiment": "Flow cytometric analysis of HECA-452 epitopes on KG1a cells", "format": "cell-based", "source_text": "In a similar set of experiments, we analyzed the effects of 4-F-GlcNAc on selectin ligand expression and function on the human hematopoietic cell line KGla. KGla cells express a distinct HECA-452-reactive CD44 glycoform that functions as both an E- and L-selectin ligand (Dimitroff, C. J. et al. (2001) J. Cell Biol., 53: 1277–1286; Dimitroff, C. J. et al. (2000) Proc. Nat. Acad. Sci., 97(25):13841–46; Sackstein, R. and Dimitroff, C. J. (2000) Blood, 96: 2765–74.), otherwise known as HCELL, respectively. This specialized glycoform represents a major E-selectin and the primary L-selectin ligand on normal CD34+ HPCs and on leukemic cells, and, therefore, is also implicated in the BM homing aspects and growth-related activities of HPCs in vivo, respectively (Id.). We first performed flow cytometric analysis of HECA-452 antigen and CD44 on 4-F-GlcNAc-treated KGla cells. […] Only positive cells, which were those cells with fluorescence above background autofluorescence and fluorochrome-conjugated secondary Ab staining, were analyzed.\nFlow cytometric analysis was performed on human leukocytes utilizing both direct and indirect immunofluorescence staining approaches. All cells utilized for these experiments were washed twice with cold PBS/2%FBS and suspended at 10^7/ml PBS/1% FBS. Primary antibodies, anti-CLA (HECA-452), -CD4, -CD8, CD43 (L60) and PSGL-1 (PL-2) along with the appropriate isotype-matched control antibodies were incubated with the cells for 30 min on ice. Following two washes with PBS/2%FBS, cells were resuspended in PBS/1%FBS and fluorochrome-conjugated secondary antibodies (2 μl) and incubated for 30 min on ice. Cells were washed twice with PBS/2%FBS, resuspended in PBS and flow cytometry was performed on a FACScan apparatus equipped with an argon laser tuned at 488 nm (Becton Dickinson)."}, "[2]": {"system": "terminal GlcNAc or GlcNAcβ1,4GlcNAc (WGA staining)", "experiment": "Lectin blot with WGA of CLA+ T-cell lysates", "format": "cell-based, human", "details": "compared with PBS or GlcNAc treatments", "description": "(§1) For lectin blotting, cell lysates (25 μg/spot) were spotted onto methanol-permeabilized PVDF membrane and blocked in FBS for 1 h at RT. Blots were then probed with AP-Canavalia ensiformis agglutinin (ConA) (2.0 μg/ml PBS; specificity: α-mannose), AP-Triticum vulgaris (Wheat germ) agglutinin (WGA) (0.5 μg/ml PBS; specificity: terminal GlcNAc or GlcNAcβ1,4GlcNAc) or AP-Lycopersicon esculentum (tomato lectin) agglutinin (LEA) (1.0 μg/ml PBS; specificity: (Galβ1,4GlcNAc)n) for 1 h at RT (All lectins from EY Labs., Inc., San Mateo, Calif.). After washing 3× in PBS/0.1% Tween-20 and 1× in PBS (10 min each), blots were developed with Western Blue®.\n(§2) To analyze and identify the glycan modifications on CLA^+ T-cells treated with 4-F-GlcNAc, lectin blotting experiments were performed with ConA (Specificity: α-mannose), WGA (Specificity: terminal GlcNAc or GlcNAcβ1,4GlcNAc) and LEA (Specificity: {Galβ1,4GlcNAc}n)."}, "[3]": {"system": "(Galβ1,4GlcNAc)n (LEA staining)", "experiment": "Lectin blot with LEA of CLA+ T-cell lysates", "format": "cell-based, human", "details": "compared with PBS or GlcNAc treatments", "description": "as §1, §2"}, "[4]": {"experiment": "Toxicity (body weight, white cell counts, tolerability) in DTH mice", "format": "in vivo, mouse", "description": "Thus, in these studies, a maximal dose of 250 mg/kg as well as 100 and […] doses were used in order to make both toxic and efficacy assessments of fluorinated hexosamine analog anti-inflammatory effects. To induce delayed type hypersensitivity (DTH), C57BL6 mice were sensitized on their abdomen on days 0 and 1 with 25 μl of 0.5% 2,4-dinitrofluorobenzene (DNFB) (i.e. hapten) in a 4:1 solution of acetone to olive oil (vehicle). Negative control mice were sensitized with vehicle alone. Mice were then treated from days 0–6 with drug vehicle (0.9% saline), 50 mg/kg 4-F-GlcNAc, 100 mg/kg 4-F-GlcNAc, 250 mg/kg 4-F-GlcNAc or 250 mg/kg GlcNAc (negative sugar control). Hapten-induced inflammation was then promoted on day 6 by challenging the mice with 10 μl of 0.25% DNFB on both sides of the right ear and mice also received 10 μl of vehicle alone on both sides of the left ear as a negative inflammatory control. Ear swelling responses were measured 24 h later on day 7 and subtracted from baseline measurements that were recorded on day 6."}, "[5]": {"system": "HCELL/CD44 activity on human hematopoietic KG1a cells", "experiment": "Stamper-Woodruff adhesion assay, L-selectin-dependent lymphocyte adherence to KG1a cells", "format": "cell-based", "details": "KG1a neuraminidase then recovery in 0.02 mM"}}, "data": [{"molecule": "CC(=O)N[C@H]1C(OC(C)=O)O[C@H](COC(C)=O)[C@@H](F)[C@@H]1OC(C)=O", "note": "(stereo partly drawn) [4-F-GlcNAc, 2-acetamido-2-deoxy-1,3,6-tri-O-acetyl-4-deoxy-4-fluoro-D-glucopyranose]", "values": [{"measurement": "IC10 value (growth inhibition)", "setting": "human CLA+ T-cells; 2 cell doublings (~36 h) at 37° C., Trypan-blue exclusion", "result": "> 0.2", "unit": "mM"}, {"measurement": "growth inhibitory effects on CLA+ T-cell cultures", "setting": "human CLA+ T-cells; treated for 36 hr at concentrations less than 0.5 mM", "result": "no inhibition of growth"}, {"measurement": "de novo re-expression of the HECA-452 epitopes on KG1a cells", "setting": "[1]; 0.05, 0.1 or 0.5 mM after neuraminidase", "result": "inhibited in a concentration-dependent manner"}, {"measurement": "HECA-452 Mean Channel Fluorescence", "setting": "[1]; KG1a neuraminidase then recovery in 0.05 mM", "result": 112}, {"measurement": "HECA-452 Mean Channel Fluorescence", "setting": "[1]; KG1a neuraminidase then recovery in 0.1 mM", "result": 108}, {"measurement": "HECA-452 Mean Channel Fluorescence", "setting": "[1]; KG1a neuraminidase then recovery in 0.5 mM", "result": 43}, {"measurement": "WGA staining of lysates", "setting": "[2]", "result": "elevated"}, {"measurement": "LEA staining of lysates", "setting": "[3]", "result": "notably diminished"}, {"measurement": "WBC counts", "setting": "[4]; 50 mg/kg, days 0–6", "result": "did not affect"}, {"measurement": "mouse body weight", "setting": "[4]; 50 mg/kg, days 0–6", "result": "did not affect"}, {"measurement": "reduction in body weight", "setting": "[4]; 250 mg/kg, days 0–6", "result": "~5", "unit": "%"}, {"measurement": "total white cell counts", "setting": "[4]; 250 mg/kg, days 0–6", "result": "60 % of drug controls"}, {"measurement": "tolerability", "setting": "[4]; 250 mg/kg/d×6", "result": "therapy-limiting"}, {"measurement": "tolerability", "setting": "[4]; 100 and 50 mg/kg/d×6 days", "result": "well-tolerated"}]}, {"molecule": "tunicamycin", "values": [{"measurement": "WGA staining of lysates", "setting": "[2]", "result": "eliminated"}, {"measurement": "LEA staining of lysates", "setting": "[3]", "result": "eliminated"}, {"measurement": "% Inhibition (lymphocyte binding)", "setting": "[5]", "result": 99, "unit": "%"}, {"measurement": "Mean Lymphocyte Binding", "setting": "[5]", "result": 3.0}]}]}
